Experimental data as given in patent US9242996B2 (Novartis AG, priority 2013, dated 2016).

target: activated ERK2 (Homo sapiens (Human), UniProt P28482); test: Activated ERK2 (20 pM) Kinase Assay (AlphaScreen, ERKtide phosphorylation); assay type: biochemical; details: 0.02 nM ERK2, 400 nM ERKtide peptide, 35 μM ATP, 30 min preincubation
Procedure, shortened: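 AlphaScreen read-out (anti-phospho-EGFR Thr669 antibody, protein A acceptor/streptavidin donor beads) of ERKtide (400 nM) phosphorylation by 20 pM activated ERK2 at 35 μM ATP.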

Sequence of activated ERK2 (P28482 whole entry): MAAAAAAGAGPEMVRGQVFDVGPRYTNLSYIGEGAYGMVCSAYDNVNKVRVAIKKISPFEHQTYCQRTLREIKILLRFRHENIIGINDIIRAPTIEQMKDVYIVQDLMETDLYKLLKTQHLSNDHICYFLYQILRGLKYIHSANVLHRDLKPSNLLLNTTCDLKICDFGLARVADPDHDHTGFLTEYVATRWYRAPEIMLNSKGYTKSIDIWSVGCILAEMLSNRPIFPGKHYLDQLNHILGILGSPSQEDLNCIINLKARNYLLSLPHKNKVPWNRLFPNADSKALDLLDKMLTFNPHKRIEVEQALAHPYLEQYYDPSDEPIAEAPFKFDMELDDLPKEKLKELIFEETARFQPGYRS

IC50 | SMILES
0.00875 nM | Cc1c(-c2cnc(N)c(-c3ccc(C(=O)N[C@H](CO)c4cc(F)cc(CF)c4)c(F)c3)c2)cnn1C [Example 242, (S)-4-(2-amino-5-(1,5-dimethyl-1H-pyrazol-4-yl)pyridin-3-yl)-2-fluoro-N-(1-(3-fluoro-5-(fluoromethyl)phenyl)-2-hydroxyethyl) benzamide]
0.051 nM | Nc1ncc([C@H]2CC[C@H](O)[C@@H](F)C2)nc1-c1ccc(C(=O)N[C@H](CO)c2cc(F)cc(Br)c2)c(F)c1 [Example 182, 4-(3-amino-6-((1S,3S,4S)-3-fluoro-4-hydroxycyclohexyl)pyrazin-2-yl)-N—((S)-1-(3-bromo-5-fluorophenyl)-2-hydroxyethyl)-2-fluorobenzamide]
0.0363 nM | Nc1ncc([C@@H]2CC[C@@H](O)[C@@H](F)C2)nc1-c1ccc(C(=O)N[C@H](CO)c2cc(F)cc(Br)c2)c(F)c1 [Example 187, 4-(3-amino-6-((1R,3S,4R)-3-fluoro-4-hydroxycyclohexyl)pyrazin-2-yl)-N—((S)-1-(3-bromo-5-fluorophenyl)-2-hydroxyethyl)-2-fluorobenzamide]
0.122 nM | Nc1ncc(C2CCCC(O)C2)nc1-c1ccc(C(=O)N[C@H](CO)c2cccc(Br)c2)c(F)c1 (single isomer, unassigned) [Example 385]
0.005 nM | NC[C@@H](NC(=O)c1ccc(-c2nc([C@@H]3CC[C@@H](O)[C@H](F)C3)cnc2N)cc1F)c1cc(F)cc(I)c1 [Example 315, N-((S)-2-amino-1-(3-fluoro-5-iodophenyl)ethyl)-4-(3-amino-6-((1R,3R,4R)-3-fluoro-4-hydroxy-cyclohexyl)pyrazin-2-yl)-2-fluorobenzamide]
0.00431 nM | Nc1ncc([C@@H]2CC[C@@H](O)[C@H](O)C2)nc1-c1ccc(C(=O)N[C@H](CO)c2cc(F)cc(I)c2)c(F)c1 [Example 461, 4-(3-amino-6-((1R,3R,4R)-3,4-dihydroxy-cyclohexyl)pyrazin-2-yl)-2-fluoro-N-((S)-1-(3-fluoro-5-iodophenyl)-2-hydroxyethyl) benzamide]
0.0121 nM | Cc1nn(C)cc1-c1cnc(N)c(-c2ccc(C(=O)N[C@H](CO)c3cc(F)cc(CF)c3)c(F)c2)c1 [Example 243, (S)-4-(2-amino-5-(1,3-dimethyl-1H-pyrazol-4-yl)pyridin-3-yl)-2-fluoro-N-(1-(3-fluoro-5-(fluoromethyl)phenyl)-2-hydroxyethyl) benzamide]
0.0317 nM | CNC[C@@H](NC(=O)c1ccc(-c2nc([C@H]3CC[C@H](O)[C@H](F)C3)cnc2N)cc1F)c1cc(F)cc(Br)c1 [Example 356, 4-(3-amino-6-((1S,3R,4S)-3-fluoro-4-hydroxy-cyclohexyl)pyrazin-2-yl)-N-((S)-1-(3-bromo-5-fluorophenyl)-2-(methylamino)ethyl)-2-fluorobenzamide]
0.184 nM | Nc1ncc([C@H]2CC[C@H](F)CC2)nc1-c1ccc(C(=O)N[C@H](CO)c2cccc(Cl)c2)c(F)c1 [Example 449, 4-(3-amino-6-((1r,4S)-4-fluorocyclohexyl)pyrazin-2-yl)-N-((S)-1-(3-chlorophenyl)-2-hydroxyethyl)-2-fluorobenzamide]
0.0258 nM | Cc1c(-c2cnc(N)c(-c3ccc(C(=O)N[C@H](CO)c4cccc(CF)c4)c(F)c3)c2)cnn1C [Example 256, (S)-4-(2-amino-5-(1,5-dimethyl-1H-pyrazol-4-yl)pyridin-3-yl)-2-fluoro-N-(1-(3-(fluoromethyl)phenyl)-2-hydroxyethyl) benzamide]
0.0431 nM | Cc1c(-c2cnc(N)c(-c3ccc(C(=O)N[C@H](CO)c4cccc(Cl)c4)c(F)c3)c2)cnn1C(F)F [Example 264, (S)-4-(2-amino-5-(1-(difluoromethyl)-5-methyl-1H-pyrazol-4-yl)pyridin-3-yl)-N-(1-(3-chlorophenyl)-2-hydroxyethyl)-2-fluorobenzamide]
0.011 nM | NC[C@@H](NC(=O)c1ccc(-c2nc([C@H]3CC[C@H](O)CC3)cnc2N)cc1F)c1cccc(I)c1 [Example 343, N-((S)-2-amino-1-(3-iodophenyl)ethyl)-4-(3-amino-6-((1r,4S)-4-hydroxy-cyclohexyl)pyrazin-2-yl)-2-fluorobenzamide]
0.0222 nM | Nc1ncc(C2CCOCC2)nc1-c1ccc(C(=O)N[C@H](CO)c2cc(F)cc(Cl)c2)c(F)c1 [Example 330, (S)-4-(3-amino-6-(tetrahydro-2H-pyran-4-yl)pyrazin-2-yl)-N-(1-(3-chloro-5-fluorophenyl)-2-hydroxyethyl)-2-fluorobenzamide]
0.0442 nM | N#CC1CCC(c2cnc(N)c(-c3ccc(C(=O)N[C@H](CO)c4cc(F)cc(Br)c4)c(F)c3)n2)CC1 (stereo partly drawn) [Example 451, (S)-4-(3-amino-6-(4-cyanocyclohexyl)pyrazin-2-yl)-N-(1-(3-bromo-5-fluorophenyl)-2-hydroxyethyl)-2-fluorobenzamide]
0.0617 nM | CCNC[C@@H](NC(=O)c1ccc(-c2nc([C@H]3CC[C@H](O)CC3)cnc2N)cc1F)c1cccc(Br)c1 [Example 379, 4-(3-amino-6-((1r,4S)-4-hydroxy-cyclohexyl)pyrazin-2-yl)-N-((S)-1-(3-bromophenyl)-2-(ethylamino)ethyl)-2-fluorobenzamide]
0.0205 nM | CNC[C@@H](NC(=O)c1ccc(-c2nc([C@H]3CC[C@H](OC)CC3)cnc2N)cc1F)c1cc(F)cc(Br)c1 [Example 374, 4-(3-amino-6-((1r,4S)-4-methoxy-cyclohexyl)pyrazin-2-yl)-N-((S)-1-(3-bromo-5-fluorophenyl)-2-(methylamino)ethyl)-2-fluorobenzamide]
0.0752 nM | Nc1ncc(C2CCCC(O)C2)nc1-c1ccc(C(=O)N[C@H](CO)c2cccc(Cl)c2)c(F)c1 (single isomer, unassigned) [Example 393]
0.01 nM | Nc1ncc(C2CCOCC2)nc1-c1ccc(C(=O)N[C@H](CO)c2cc(F)cc(CF)c2)c(F)c1 [Example 329, (S)-4-(3-amino-6-(tetrahydro-2H-pyran-4-yl)pyrazin-2-yl)-2-fluoro-N-(1-(3-fluoro-5-(fluoromethyl)phenyl)-2-hydroxyethyl) benzamide]
0.00612 nM | NC[C@@H](NC(=O)c1ccc(-c2nc(C3CCOCC3)cnc2N)cc1F)c1cc(F)cc(I)c1 [Example 179, (S)—N-(2-amino-1-(3-fluoro-5-iodophenyl)ethyl)-4-(3-amino-6-(tetrahydro-2H-pyran-4-yl)pyrazin-2-yl)-2-fluorobenzamide]
0.371 nM | Nc1ncc([C@H]2CC[C@@H](F)CC2)nc1-c1ccc(C(=O)N[C@H](CO)c2cccc(Cl)c2)c(F)c1 [Example 448, 4-(3-amino-6-((1s,4R)-4-fluorocyclohexyl)pyrazin-2-yl)-N-((S)-1-(3-chlorophenyl)-2-hydroxyethyl)-2-fluorobenzamide]
0.218 nM | Nc1ncc([C@H]2CC[C@@H](O)[C@@H](O)C2)nc1-c1ccc(C(=O)N[C@H](CO)c2cc(F)cc(Br)c2)c(F)c1 [Example 466, 4-(3-amino-6-((1S,3S,4R)-3,4-dihydroxy-cyclohexyl)pyrazin-2-yl)-2-fluoro-N-((S)-1-(3-fluoro-5-bromophenyl)-2-hydroxyethyl) benzamide]

SMILES | IC50
Cc1c(-c2cnc(N)c(-c3ccc(C(=O)N[C@H](CO)c4cccc(Cl)c4)c(F)c3)c2)cnn1C [Example 133, (S)-4-(2-amino-5-(1-deuterido-methyl, 5-methyl-1H-pyrazol-4-yl)pyridin-3-yl)-N-(1-(3-chlorophenyl)-2-hydroxyethyl)-2-fluorobenzamide] | 0.0187 nM
